Assay results reported in the RepoRT retention time repository (doi:10.1016/j.jchromb.2020.122105).

Assays:
Conditions in all cases: stereoisomer not certain
[1] = RP, Waters CORTECS T3, 100 × 2.1 mm, 2.7 µm, 0.3 mL/min, estimated dead time 0.73 min; A: water + 0.1% formic acid, pH 3; B: methanol + 0.1% formic acid, pH 3; gradient (min/%B) 0/0 1/0 6/5 30/100 35/100 35.1/0 40/0
[2] = RP, Waters ACQUITY UPLC BEH C18, 100 × 2.1 mm, 1.7 µm, 0.1 mL/min, estimated dead time 2.2 min; A: water + 0.1% formic acid, pH 3; B: methanol + 0.1% formic acid, pH 3; gradient (min/%B) 0/5 5/5 25/100 30/100 30.1/5 35/5
[3] = RP, Thermo Scientific Hypercarb, 150 × 2.1 mm, 5 µm, 0.1 mL/min, estimated dead time 3.3 min; A: water + 0.1% formic acid, pH 3; B: methanol + 0.1% formic acid, pH 3; gradient (min/%B) 0/5 5/5 20/100 35/100 35.1/5 45/5
[4] = RP, Waters CORTECS T3, 100 × 2.1 mm, 2.7 µm, 0.2 mL/min, estimated dead time 1.1 min; A: water + 0.045% formic acid + 0.11% ammonium hydroxide, pH 7; B: methanol; gradient (min/%B) 0/5 5/5 25/95 25.1/100 35/100 35.1/5 45/5
[5] = RP, Waters CORTECS T3, 100 × 2.1 mm, 2.7 µm, 0.3 mL/min, estimated dead time 0.73 min; A: water + 0.1% formic acid, pH 3; B: methanol + 0.1% formic acid, pH 3; gradient (min/%B) 0/0 5/0 25/100 30/100 30.1/0 35/0
[6] = RP, Waters CORTECS T3, 100 × 2.1 mm, 2.7 µm, 0.1 mL/min, estimated dead time 2.2 min; A: water + 0.1% formic acid, pH 3; B: methanol + 0.1% formic acid, pH 3; gradient (min/%B) 0/0 1/0 6/5 30/100 35/100 35.1/0 40/0
[7] = RP, Waters CORTECS T3, 100 × 2.1 mm, 2.7 µm, 0.2 mL/min, estimated dead time 1.1 min; A: water + 0.1% formic acid, pH 3; B: methanol + 0.1% formic acid, pH 3; gradient (min/%B) 0/0 1/0 6/5 30/100 35/100 35.1/0 40/0
[8] = RP, Waters CORTECS T3, 100 × 2.1 mm, 2.7 µm, 0.1 mL/min, estimated dead time 2.2 min; A: water + 0.1% formic acid, pH 3; B: methanol + 0.1% formic acid, pH 3; gradient (min/%B) 0/5 5/5 25/95 25.1/100 35/100 35.1/5 45/5
[9] = RP, Waters CORTECS T3, 100 × 2.1 mm, 2.7 µm, 0.15 mL/min, estimated dead time 1.5 min; A: water + 0.1% formic acid, pH 3; B: methanol + 0.1% formic acid, pH 3; gradient (min/%B) 0/0 1/0 6/5 30/100 35/100 35.1/0 40/0
[10] = RP, Waters CORTECS T3, 100 × 2.1 mm, 2.7 µm, 0.25 mL/min, estimated dead time 0.88 min; A: water + 0.1% formic acid, pH 3; B: methanol + 0.1% formic acid, pH 3; gradient (min/%B) 0/0 1/0 6/5 30/100 35/100 35.1/0 40/0
[11] = RP, Waters CORTECS T3, 100 × 2.1 mm, 2.7 µm, 0.3 mL/min, estimated dead time 0.73 min; A: water + 0.1% formic acid, pH 3; B: methanol + 0.1% formic acid, pH 3; gradient (min/%B) 0/5 5/5 25/100 30/100 30.1/5 35/5
[12] = RP, Waters ACQUITY UPLC BEH C18, 100 × 2.1 mm, 1.7 µm, 0.2 mL/min, estimated dead time 1.1 min; A: water + 0.025% formic acid + 20 mM ammonium acetate + 0.055% ammonium hydroxide, pH 7; B: methanol; gradient (min/%B) 0/5 5/5 25/100 30/100 30.1/5 35/5
[13] = RP, Waters CORTECS T3, 100 × 2.1 mm, 2.7 µm, 0.3 mL/min, estimated dead time 0.73 min; A: water + 0.1% formic acid, pH 3; B: methanol + 0.1% formic acid, pH 3; gradient (min/%B) 0/5 5/5 25/95 25.1/100 35/100 35.1/5 45/5
[14] = RP, Waters CORTECS T3, 100 × 2.1 mm, 2.7 µm, 0.3 mL/min, estimated dead time 0.73 min; A: water + 0.1% formic acid, pH 3; B: methanol + 0.1% formic acid, pH 3; gradient (min/%B) 0/0 1/0 6/5 30/100 35/100 35.1/0 40/0; remark: listed apart in the source
[15] = HILIC, Waters XBridge BEH Amide, 100 × 2.1 mm, 2.5 µm, 0.5 mL/min, estimated dead time 0.44 min; A: water + 0.1% acetic acid + 10 mM ammonium acetate, pH 4; B: 5% water + 95% acetonitrile + 0.1% acetic acid + 10 mM ammonium acetate, pH 4; gradient (min/%B) 0/95 5/95 20/57 25/57 30/95 40/95
[16] = RP, Waters CORTECS T3, 100 × 2.1 mm, 2.7 µm, 0.2 mL/min, estimated dead time 1.1 min; A: water + 0.1% formic acid, pH 3; B: methanol + 0.1% formic acid, pH 3; gradient (min/%B) 0/0 1/0 6/5 30/100 35/100 35.1/0 40/0; remark: listed apart in the source
[17] = RP, Waters CORTECS T3, 100 × 2.1 mm, 2.7 µm, 0.25 mL/min, estimated dead time 0.88 min; A: water + 0.1% formic acid, pH 3; B: methanol + 0.1% formic acid, pH 3; gradient (min/%B) 0/5 5/5 25/95 25.1/100 35/100 35.1/5 45/5
[18] = RP, Waters CORTECS T3, 100 × 2.1 mm, 2.7 µm, 0.2 mL/min, estimated dead time 1.1 min; A: water + 0.1% formic acid, pH 3; B: methanol + 0.1% formic acid, pH 3; gradient (min/%B) 0/5 5/5 25/95 25.1/100 35/100 35.1/5 45/5
[19] = HILIC, Merck SeQuant ZIC-HILIC, 150 × 2.1 mm, 5 µm, 0.75 mL/min, estimated dead time 0.44 min; A: water + 0.1% acetic acid + 10 mM ammonium acetate, pH 4; B: 5% water + 95% acetonitrile + 0.1% acetic acid + 10 mM ammonium acetate, pH 4; gradient (min/%B) 0/95 5/95 20/57 25/57 30/95 40/95
[20] = RP, Waters ACQUITY UPLC BEH C18, 100 × 2.1 mm, 1.7 µm, 0.2 mL/min, estimated dead time 1.1 min; A: water + 0.025% formic acid + 20 mM ammonium acetate + 0.055% ammonium hydroxide, pH 7; B: methanol; gradient (min/%B) 0/5 5/5 25/100 30/100 30.1/5 35/5; remark: listed apart in the source
[21] = RP, Waters ACQUITY UPLC BEH C18, 100 × 2.1 mm, 1.7 µm, 0.2 mL/min, estimated dead time 1.1 min; A: water + 0.1% formic acid, pH 3; B: methanol + 0.1% formic acid, pH 3; gradient (min/%B) 0/5 5/5 25/100 30/100 30.1/5 35/5
[22] = RP, Waters CORTECS T3, 100 × 2.1 mm, 2.7 µm, 0.3 mL/min, estimated dead time 0.73 min; A: water + 0.1% formic acid, pH 3; B: methanol + 0.1% formic acid, pH 3; gradient (min/%B) 0/0 5/0 25/100 30/100 30.1/0 35/0; remark: listed apart in the source
[23] = RP, Waters ACQUITY UPLC BEH C18, 100 × 2.1 mm, 1.7 µm, 0.1 mL/min, estimated dead time 2.2 min; A: water + 0.045% formic acid + 0.11% ammonium hydroxide, pH 7; B: methanol; gradient (min/%B) 0/5 5/5 25/95 25.1/100 35/100 35.1/5 45/5

## Nc1cccc2ccccc12 [1-NAPHTHYLAMINE]
[1]
  LC retention time: 11.8 min
[2]
  LC retention time: 16.5 min
[3]
  LC retention time: 30.6 min
[4]
  LC retention time: 14.5 min
[5]
  LC retention time: 11.5 min
[6]
  LC retention time: 12.1 min
[7]
  LC retention time: 13.5 min
[8]
  LC retention time: 16.1 min
[9]
  LC retention time: 15.2 min
[10]
  LC retention time: 12.6 min
[11]
  LC retention time: 10.2 min
[12]
  LC retention time: 14.7 min
[13]
  LC retention time: 10.3 min

## O=c1ccn(C2CC(O)C(COP(=O)(O)O)O2)c(=O)[nH]1 (stereo not drawn) [2'-DEOXYURIDINE 5'-MONOPHOSPHATE]
[14]
  LC retention time: 0.92 min
[15]
  LC retention time: 13.3 min
[16]
  LC retention time: 1.35 min
[17]
  LC retention time: 1.08 min
[18]
  LC retention time: 2.67 min

## O=c1[nH]c(=O)c2nccnc2[nH]1 [2,4-DIHYDROXYPTERIDINE]
[2]
  LC retention time: 5.19 min
[15]
  LC retention time: 1.7 min
[19]
  LC retention time: 1.46 min

## CC(C)=CC(=O)SCCNC(=O)CCNC(=O)C(O)C(C)(C)COP(=O)(O)OP(=O)(O)OCC1OC(n2cnc3c(N)ncnc32)C(O)C1OP(=O)(O)O (stereo not drawn) [3-METHYLCROTONYL-COA]
[20]
  LC retention time: 8.78 min

## O=c1[nH]cc(CO)c(=O)[nH]1 [5-HYDROXYMETHYLURACIL]
[14]
  LC retention time: 0.9 min
[21]
  LC retention time: 1.41 min
[17]
  LC retention time: 1.06 min

## O=C(O)CCCCCCCCCO [10-HYDROXYDECANOATE]
[22]
  LC retention time: 17.3 min
[21]
  LC retention time: 18.3 min
[19]
  LC retention time: 1.13 min
[17]
  LC retention time: 17.7 min

## Nc1ncnc2c1ncn2C1OC(COP(=O)(O)OP(=O)(O)OC2OC(CO)C(O)C(O)C2O)C(O)C1O (stereo not drawn) [ADENOSINE 5'-DIPHOSPHOGLUCOSE]
[14]
  LC retention time: 0.92 min
[22]
  LC retention time: 0.89 min
[21]
  LC retention time: 1.56 min
[16]
  LC retention time: 1.35 min
[17]
  LC retention time: 1.08 min

## Cc1cc2nc3c(=O)[nH]c(=O)nc-3n(CC(O)C(O)C(O)COP(=O)(O)OP(=O)(O)OCC3OC(n4cnc5c(N)ncnc54)C(O)C3O)c2cc1C (stereo not drawn) [FLAVIN ADENINE DINUCLEOTIDE]
[14]
  LC retention time: 12.1 min

## Cn1cncc1CC(NC(=O)CCN)C(=O)O [L-ANSERINE]
[3]
  LC retention time: 4.86 min
[15]
  LC retention time: 15 min
[12]
  LC retention time: 1.42 min
[18]
  LC retention time: 2.43 min
[20]
  LC retention time: 1.41 min

## NC(=O)CC[C@H](N)C(=O)O [L-GLUTAMINE]
[3]
  LC retention time: 4.84 min
[15]
  LC retention time: 13 min
[19]
  LC retention time: 12.9 min
[18]
  LC retention time: 2.48 min

## N[C@H](CO)Cc1cnc[nH]1 [L-HISTIDINOL]
[23]
  LC retention time: 3.33 min
[3]
  LC retention time: 4.68 min
[4]
  LC retention time: 1.54 min
[15]
  LC retention time: 11.4 min
[12]
  LC retention time: 1.79 min

## COC1OC(CO)C(O)C(O)C1O [METHYL BETA-D-GALACTOSIDE]
[15]
  LC retention time: 4.84 min
[19]
  LC retention time: 5.01 min

## CC(=O)NCC(=O)O [N-ACETYLGLYCINE]
[14]
  LC retention time: 0.95 min
[21]
  LC retention time: 1.46 min
[15]
  LC retention time: 11.2 min
[17]
  LC retention time: 1.11 min

## NC(N)=N[C@@H](CC(=O)O)C(=O)O [N-AMIDINO-L-ASPARTATE]
[3]
  LC retention time: 12.7 min
[5]
  LC retention time: 0.89 min
[15]
  LC retention time: 14.5 min
[9]
  LC retention time: 1.78 min

## O=CNCC(=O)O [N-FORMYLGLYCINE]
[22]
  LC retention time: 0.91 min

## CNCCc1c[nH]c2ccccc12 [N-METHYLTRYPTAMINE]
[1]
  LC retention time: 9.8 min
[2]
  LC retention time: 13.3 min
[23]
  LC retention time: 14.4 min
[4]
  LC retention time: 10.7 min
[5]
  LC retention time: 9.75 min
[6]
  LC retention time: 9.68 min
[7]
  LC retention time: 11.2 min
[8]
  LC retention time: 13.1 min
[9]
  LC retention time: 12.5 min
[10]
  LC retention time: 10.4 min
[11]
  LC retention time: 8.14 min
[12]
  LC retention time: 11.1 min
[13]
  LC retention time: 8.19 min

## O=c1[nH]c(=O)c2ncn(C3OC(COP(=O)(O)O)C(O)C3O)c2[nH]1 (stereo not drawn) [XANTHOSINE 5'-MONOPHOSPHATE]
[14]
  LC retention time: 0.92 min
[22]
  LC retention time: 0.93 min
[16]
  LC retention time: 1.35 min
[17]
  LC retention time: 1.08 min
[18]
  LC retention time: 2.67 min
